Reference: PubChem BioAssay (NCI)
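The compound was tested at five concentrations on cells cultured in 96-well plates, with a 48-hour exposure period. GI50 = concentration required for 50% inhibition of growth. At the TGI there is no net growth.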

Assays:
Experiment in all cases: DTP human tumour cell line panel, 48 h
786-0 renal = system: 786-0 renal
A498 renal = system: A498 renal
A549 NSCLC = system: A549 NSCLC
ACHN renal = system: ACHN renal
BT-549 breast = system: BT-549 breast
CAKI-1 renal = system: CAKI-1 renal
CCRF-CEM leukemia = system: CCRF-CEM leukemia
COLO 205 colon = system: COLO 205 colon
EKVX NSCLC = system: EKVX NSCLC
HCT-15 colon = system: HCT-15 colon
HOP-62 NSCLC = system: HOP-62 NSCLC
HS 578T breast = system: HS 578T breast
HT29 colon = system: HT29 colon
IGROV1 ovarian = system: IGROV1 ovarian
K-562 leukemia = system: K-562 leukemia
KM12 colon = system: KM12 colon
LOX IMVI melanoma = system: LOX IMVI melanoma
M14 melanoma = system: M14 melanoma
MCF7 breast = system: MCF7 breast
MDA-MB-231 breast = system: MDA-MB-231 breast
MDA-MB-435 = system: MDA-MB-435
MOLT-4 leukemia = system: MOLT-4 leukemia
NCI-H226 lung = system: NCI-H226 lung
NCI-H460 lung = system: NCI-H460 lung
NCI-H522 lung = system: NCI-H522 lung
OVCAR-3 ovarian = system: OVCAR-3 ovarian
OVCAR-8 ovarian = system: OVCAR-8 ovarian
PC-3 prostate = system: PC-3 prostate
RPMI-8226 leukemia = system: RPMI-8226 leukemia
RXF 393 renal = system: RXF 393 renal
SF-268 CNS = system: SF-268 CNS
SF-295 CNS = system: SF-295 CNS
SF-539 CNS = system: SF-539 CNS
SK-MEL-2 melanoma = system: SK-MEL-2 melanoma
SK-MEL-5 melanoma = system: SK-MEL-5 melanoma
SNB-19 CNS = system: SNB-19 CNS
SR leukemia = system: SR leukemia
SW-620 colon = system: SW-620 colon
TK-10 renal = system: TK-10 renal
U251 CNS = system: U251 CNS
UACC-257 melanoma = system: UACC-257 melanoma
UACC-62 melanoma = system: UACC-62 melanoma
UO-31 renal = system: UO-31 renal

Q: Which results are given for `Cc1nn2c(/C=C3/C(=O)Nc4ccccc43)c(-c3ccc(Cl)cc3)nc2s1`?
A: GI50 (786-0 renal): 9.95 µM; TGI (786-0 renal): 24.2 µM; GI50 (A498 renal): > 50 µM; TGI (A498 renal): > 50 µM; GI50 (A549 NSCLC): 16.2 µM; TGI (A549 NSCLC): > 50 µM; GI50 (ACHN renal): 9.86 µM; TGI (ACHN renal): 20 µM; GI50 (BT-549 breast): 10.7 µM; TGI (BT-549 breast): > 50 µM; GI50 (CAKI-1 renal): 13.3 µM; TGI (CAKI-1 renal): > 50 µM; GI50 (CCRF-CEM leukemia): 12.3 µM; TGI (CCRF-CEM leukemia): > 50 µM; GI50 (COLO 205 colon): 14.9 µM; TGI (COLO 205 colon): > 50 µM; GI50 (EKVX NSCLC): 20.3 µM; TGI (EKVX NSCLC): > 50 µM; GI50 (HCT-15 colon): 15.3 µM; TGI (HCT-15 colon): > 50 µM; GI50 (HOP-62 NSCLC): 22.4 µM; TGI (HOP-62 NSCLC): > 50 µM; GI50 (HS 578T breast): 27.7 µM; TGI (HS 578T breast): > 50 µM; GI50 (HT29 colon): 11.9 µM; TGI (HT29 colon): 27 µM; GI50 (IGROV1 ovarian): 39.1 µM; TGI (IGROV1 ovarian): > 50 µM; GI50 (K-562 leukemia): > 50 µM; TGI (K-562 leukemia): > 50 µM; GI50 (KM12 colon): 16.5 µM; TGI (KM12 colon): > 50 µM; GI50 (LOX IMVI melanoma): 10.6 µM; TGI (LOX IMVI melanoma): 21.4 µM; GI50 (M14 melanoma): 11.5 µM; TGI (M14 melanoma): 36.4 µM; GI50 (MCF7 breast): 17.1 µM; TGI (MCF7 breast): > 50 µM; GI50 (MDA-MB-231 breast): 7.05 µM; TGI (MDA-MB-231 breast): 21.3 µM; GI50 (MDA-MB-435): 39.5 µM; TGI (MDA-MB-435): > 50 µM; GI50 (MOLT-4 leukemia): > 50 µM; TGI (MOLT-4 leukemia): > 50 µM; GI50 (NCI-H226 lung): 10.1 µM; TGI (NCI-H226 lung): 27.5 µM; GI50 (NCI-H460 lung): 22.1 µM; TGI (NCI-H460 lung): > 50 µM; GI50 (NCI-H522 lung): 46 µM; TGI (NCI-H522 lung): > 50 µM; GI50 (OVCAR-3 ovarian): 13.4 µM; TGI (OVCAR-3 ovarian): > 50 µM; GI50 (OVCAR-8 ovarian): 31.9 µM; TGI (OVCAR-8 ovarian): > 50 µM; GI50 (PC-3 prostate): 12.2 µM; TGI (PC-3 prostate): 32.2 µM; GI50 (RPMI-8226 leukemia): 4.37 µM; TGI (RPMI-8226 leukemia): > 50 µM; GI50 (RXF 393 renal): 14.1 µM; TGI (RXF 393 renal): 42.8 µM; GI50 (SF-268 CNS): 19.9 µM; TGI (SF-268 CNS): > 50 µM; GI50 (SF-295 CNS): 10.3 µM; TGI (SF-295 CNS): 31.8 µM; GI50 (SF-539 CNS): 17.4 nM; TGI (SF-539 CNS): 1270 nM; GI50 (SK-MEL-2 melanoma): > 50 µM; TGI (SK-MEL-2 melanoma): > 50 µM; GI50 (SK-MEL-5 melanoma): 26.3 µM; TGI (SK-MEL-5 melanoma): > 50 µM; GI50 (SNB-19 CNS): 10.5 µM; TGI (SNB-19 CNS): 32.6 µM; GI50 (SR leukemia): 13.8 µM; TGI (SR leukemia): > 50 µM; GI50 (SW-620 colon): > 50 µM; TGI (SW-620 colon): > 50 µM; GI50 (TK-10 renal): 12.3 µM; TGI (TK-10 renal): 32.1 µM; GI50 (U251 CNS): 9.73 µM; TGI (U251 CNS): 18.7 µM; GI50 (UACC-257 melanoma): 37.3 µM; TGI (UACC-257 melanoma): > 50 µM; GI50 (UACC-62 melanoma): 10.2 µM; TGI (UACC-62 melanoma): 21.4 µM; GI50 (UO-31 renal): > 50 µM; TGI (UO-31 renal): > 50 µM
